Assays:
[1] = system: APP-transfected SH-SY5Y cells; assay: MTT assay, cell viability of APP-transfected SH-SY5Y cells; format: cell-based, human; settings: 0.5, 1, 5, 10 and 20 μM, 4 hours, compared to the untreated APP group
Description: The human APPswe/ind gene under the transcriptional control of the SV40 promoter/enhancer linked to the pCAX mammalian expression vector was obtained from addgene; The gene was deposited in the APP reservoir by Dennis Solkoe (plasmid 30145). The plasmid was amplified by DH5alpha strain in LB medium containing 50 μg/ml of ampicillin. The plasmid was purified by using a Qiagen plasmid mini kit (Cat #12143) and digested with EcoRV restriction enzyme and confirmed. The human neuroblastoma cell line SHYSY5Y used in the present in vitro experiments was cultured in DMEM medium containing 10% fetal bovine serum and 1% penicillin-streptomycin antibiotic (stock solutions concentrations of 10,000 U and 10,000 μg/ml, respectively)).
SH-SY5Y cells and HT-22 cells were inoculated into a culture flask containing the medium, and cultured until reaching the confluency of 70% to 75%. The pCAX vector with the APPswe/ind gene was transfected for 48 hours by using Lipofectamine 3000 (Life technologies) according to the manufacturers instructions.
APPswe/ind transfected SH-SY5Y cells were treated with novel peptide for 4 hours, followed by 3-[4, 5-dimethylthiazol-2-yl]-2,5-diphenyl tetrazolium bromide (MTT) analysis and Western blot analysis.
MTT assay was performed to measure the survival rate of cells treated with various concentrations of adiponectin receptor-activating novel peptide (5AA1). The cells were inoculated at 1×10^5 cells/well in a 96-well plate containing 200 μl of Dulbecco's modified Eagle's medium (DMEM). After 70% of cell confluence, SH-SY5Y cells were treated with 0.5 μM, 1 μM, 5 μM, 10 μM, and 20 μM of adiponectin receptor-activating novel peptide, and then cultured for 4 hours. At the end of the treatment, MTT (5 mg/ml in PBS) was added to each well, and the plate was cultured at a temperature of 37° C. for 4 hours. The formazan dissolved in dimethyl sulfoxide (DMSO) was added to the well and the plate was stirred in the agitator for 10 to 20 minutes. Then, the absorbance was measured at a wavelength of 550 nm to 570 nm (L1) and 620 nm to 650 nm (L2) by using a scanning microplate reader.
The L2 absorbance was measured for cell residuals and well imperfections, and the corrected absorbance (Abs.=L1−L2) of each well was calculated from 100× the absorbance of treated well/absorbance of the control well, and was used to measure the cell viability.

[2] = system: APP/PS1 mice; assay: Thioflavin S staining / immunofluorescence analysis of amyloid plaques in brain; format: in vivo; settings: cortex of APP/PS1 mice, compared to Veh-injected APP/PS1 mice, P<0.001
Description: Adiponectin receptor-activating novel peptide (5AA1) was IP administered to 10 week old APP/PS1 mice once every 2.5 days for 45 days, and then, to prepare a slide section, the brains of the mice were fixed by transcardial perfusion of ice-cold 4% paraformaldehyde. The brains were fixed in 4% paraformaldehyde for 72 hours, and then, transferred to 20% sucrose and maintained at a temperature of 4° C. for 72 hours. The brains were placed in an optimal cutting temperature (OCT) compound (A.O., USA), frozen in liquid nitrogen, and sectioned into coronal plane (14 μm) in CM 3050C cryostat (Leica, Germany). Pictures of tissue sections were taken on ProbeOn Plus charged slides (Fisher, USA).
Immunofluorescence analysis was performed by using minor modifications of the method described in the existing study (Shah et al., 2014; Shah et al., 2015). Slides containing tissue sections were washed twice with a 0.01 M PBS solution for 15 minutes. Proteinase K was added to the tissue sections, which were then cultured at a temperature of 37° C. for 5 minutes. The tissue sections were then reacted in a blocking solution (5% normal goat serum, 0.3% Triton X-100, PBS) for 1 hour. The slides were reacted overnight with the primary antibody (the same antibody used in the ‘Western blot analysis’) and then reacted with secondary TRITC- or FITC-conjugated antibodies (diluted 1:50 in PBS; Santa Cruz) at room temperature for 90 minutes. The slides were dipped in Prolong Antifade reagent (Molecular Probe, Eugene, Oreg., USA) and stained. All stained slides were analyzed with a confocal laser scanning microscope (Flouview FV 1000). Amyloid plaques were visualized in brain slices after Thioflavin S staining. The brain slices were washed twice with 0.01 M PBS for 10 minutes, and then immersed in fresh 1% Thioflavin S solution at room temperature for 10 minutes. The brain slices were then immersed in 70% ethanol for 5 minutes, then washed twice with water, counterstained with propidium iodide (PI) and covered with cover glass.
Morphological analysis and signals were analyzed with Image J software (open source software provided by the US NIH), and the analysis results were expressed as IOD (Integral Optical Density). The ratio of the amyloid deposit site in the proposed area was also quantified by using Image-J software.

| Substance | cell viability [1] | integrated density of the Aβ plaques in the cortex (Thioflavin S) [2] |
| --- | --- | --- |
| GPWGP (adiponectin receptor-activating peptide) [5AA2] | concentration-dependently increased | significantly reduced |
| GPCWP (adiponectin receptor-activating peptide) [5AA4] | increased compared to the APP group, although the increase was not dependent on concentration | significantly reduced |
| GPCYP (adiponectin receptor-activating peptide) [5AA3] | increased compared to the APP group, although the increase was not dependent on concentration | significantly reduced |

— patent US10618937B2, “Method of treating Alzheimer's disease” (INDUSTRY-ACADEMIC COOPERATION FOUNDATION GYEONGSANG …, priority 2016, dated 2020)
